Measured values reported in US20040266862A1, “Method of improving animal tissue quality by supplementing the animal diet with mixed tocotrienols” (priority 2003, published 2004).
Marks after values point to notes of the source that are not given here.

Legend:
Format in all cases: in vivo
swine = assay: 2002 swine feed test: sensory characteristics of cooked pork loin chops
Excerpt: Applicants conducted a second swine feeding trial to further determine the effects on meat quality of supplementation of a swine diet with alpha-tocopherol (AT), gamma-tocopherol (GT) or mixed tocotrienols (MT). Seventy-two barrows (˜75 lbs.) were transported to the Pioneer Livestock Nutrition Center (PLNC) and randomly placed into individual pens with water and feed provided ad libitum. The pigs received a common diet for seven days. On the eighth day the pigs were weighed individually and a uniform group of sixty pigs with an average body weight of about 75 pounds was selected. The pigs were randomly assigned one of five dietary treatments with 12 pigs per treatment. The feeding trial was initiated on Mar. 12, 2002 and ended on Jun. 19, 2002. The pigs were fed a corn-soybean meal diet formulated to provide adequate levels of all nutrients. In addition, one of five dietary treatments was assigned to each group: control, 300 ppm AT, 450 ppm GT, 150 ppm MT, and 300 ppm MT. To each diet a corn oil premix and a ground corn premix were added with the corn oil premix as a carrier for the supplemental tocopherols and the ground corn premix as the carrier for the MT. The MT supplement was obtained commercially from Fuji Chemical Industries (U.S.A.) Inc. of Robbinsville, N.J., and contained 7.5% alpha-, 12.3% gamma- and 3.0% delta-tocotrienol, as well as 7.2% alpha-tocopherol. A one-inch thick chop was collected from the 10th rib region of each pig carcass to evaluate the effects of dietary treatment on cooked product characteristics. Sensory evaluation was conducted using a trained sensory panel. Each panelist evaluated a ½ inch cube removed from the center of a cooked pork chop immediately after reaching 71 degrees C. Samples were evaluated for degree of juiciness, tenderness, chewiness, pork flavor and off-flavor intensity.

cattle [1] = assay: 2002-03 cattle feed test: moisture, fat and TBARS content of raw ground beef patties; settings: 300 ppm in diet
Excerpt: (§1) Applicants also assessed the effects of antioxidant supplementation on beef quality in an experiment in which ground beef and steaks from cattle fed one of four dietary treatments were compared. Forty steers (average weight 1082 lbs.) were blocked by weight (heavy or light) and assigned to eight outdoor group pens. Pens were randomly assigned within weight blocks to four dietary treatments (two pens per dietary treatment): control, 300 ppm gamma-tocopherol, 150 ppm MT or 300 ppm MT. As in the swine and poultry feed trials, the MT supplement was obtained commercially from Fuji Chemical Industries (U.S.A.) Inc. of Robbinsville, N.J., and contained 7.5% alpha-, 12.3% gamma- and 3.0% delta-tocotrienol for a total MT content of 22.8 wt %, as well as 7.2% alpha-tocopherol. The control diet was not supplemented with even the NRC (1996) recommended level of vitamin E (15 to 60 ppm). […]
(§2) The dietary treatments were top-dressed onto the feed and mixed with the morning daily feed. The target level for feeding gamma-tocopherol was calculated to be 2 g per animal per day. […]
Four pounds of lean and one pound of fat were harvested from each steer and mixed to produce ground beef patties with a targeted fat content of 20%. […] The pre- and post-display ground beef patties were analyzed for oxidative stability by determining their TBARS concentration.

cattle [2] = assay: 2002-03 cattle feed test: raw ribeye steak subjective color; settings: 300 ppm in diet
Excerpt: (§3) Applicants also assessed the effects of antioxidant supplementation on beef quality in an experiment in which ground beef and steaks from cattle fed one of four dietary treatments were compared. Forty steers (average weight 1082 lbs.) were blocked by weight (heavy or light) and assigned to eight outdoor group pens. Pens were randomly assigned within weight blocks to four dietary treatments (two pens per dietary treatment): control, 300 ppm gamma-tocopherol, 150 ppm MT or 300 ppm MT. As in the swine and poultry feed trials, the MT supplement was obtained commercially from Fuji Chemical Industries (U.S.A.) Inc. of Robbinsville, N.J., and contained 7.5% alpha-, 12.3% gamma- and 3.0% delta-tocotrienol for a total MT content of 22.8 wt %, as well as 7.2% alpha-tocopherol. The control diet was not supplemented with even the NRC (1996) recommended level of vitamin E (15 to 60 ppm).
(§4) The steers were fed rolled corn diets with added cottonseed hulls that contained little or no vitamin E. The corn grain used in this trial was more than two years old so that it would be largely depleted of vitamin E. The steers were gradually adapted to an 80% grain-based diet and fed the low vitamin E diet for over one month prior to the start of the dietary supplementation period. Steers then were fed their respective dietary treatments for 54 days, starting Dec. 18, 2002 and ending Feb. 10, 2003.
(§5) The dietary treatments were top-dressed onto the feed and mixed with the morning daily feed. The target level for feeding gamma-tocopherol was calculated to be 2 g per animal per day. Mineral oil was used as a carrier for the gamma-tocopherol. The two target amounts of mixed tocotrienols were equivalent to, or half of, the gamma tocopherol level. The MT compounds were diluted with cornmeal to supply the required amount of mixed tocotrienols.
(§6) On the day following delivery of the beef rib sections to Kansas State University, ribs were boned out, vacuum packaged, and held at approximately (2° C.) until thirteen days postmortem, at which time the ribs were faced at the 13th rib region. The ribs were cut into 2.54 cm thick ribeye steaks, one steak from each rib to be used for color appraisal under retail display conditions and one steak for sensory evaluation. The steaks for sensory evaluation were vacuum-packaged and frozen.
The ribeye steaks utilized for color evaluation were placed onto 17S foam trays with meat, fish, and poultry pads (Dri-Loc AC-50) and wrapped with polyvinyl chloride film. The packaged steaks were placed under simulated retail display at 34±3° F. under 1614 lux (150±5 foot candles) light intensity in open-top display cases. The cases were programmed to defrost twice daily at 12-hour intervals. Case temperature was monitored using temperature recorders. An eight-member trained panel assigned subjective color and discoloration scores on days 0, 1, 2, 3, 4, 5 and 7. Pre-storage color was evaluated on an eight point scale. Panelists evaluated post-13 day storage color using a five-point scale with 0.5 intervals. Minolta color measurements were taken on days 0 and 7 using a Hunter Lab MiniScan™ Spectrophotometer (1.25 inch diameter aperture).

cattle [3] = assay: 2002-03 cattle feed test: TBARS content of raw ribeye steaks; settings: 300 ppm in diet
Excerpt: as §1, with “alpha-tocopherol.” for “alpha-tocopherol. The control diet was not supplemented with even the NRC (1996) recommended level of vitamin E (15 to 60 ppm).”
as §2
The ribeye steaks utilized for color evaluation were placed onto 17S foam trays with meat, fish, and poultry pads (Dri-Loc AC-50) and wrapped with polyvinyl chloride film. […] Case temperature was monitored using temperature recorders. […] Pre-storage color was evaluated on an eight point scale. Panelists evaluated post-13 day storage color using a five-point scale with 0.5 intervals. […]

cattle [4] = assay: 2002-03 cattle feed test: sensory characteristics of cooked ribeye steaks; settings: freshly cooked ribeye steaks; scale of 1 to 8; 300 ppm in diet
Excerpt: as §3, §4, §5, §6
The frozen ribeye steaks designated for sensory evaluation were thawed for >24 hours at 3-4° C. and cooked in a Blodgett oven set at 163° C. The steaks were turned at 40° C. and removed from the oven at 70° C. The cooked steaks were cut into 2.54 cm×1.25 cm×1.25 cm cubes. The cubes were placed in double boilers and held warm on burners set at 107° C. until serving. Each panelist received two cubes in random order with a maximum of eight samples per session. An eight-point scale with 0.5 increments was used to score sensory attributes, with 8 being most tender, flavorful, or juicy and 1 being the least tender, flavorful, or juicy.

[5] = scale of 1 to 10, 450 ppm in diet
[6] = scale of 1 to 10, 300 ppm in diet

Question: Which Chewiness (swine; [5]) does the source give for `Cc1c(O)cc2c(c1C)O[C@](C)(CCC[C@H](C)CCC[C@H](C)CCCC(C)C)CC2` [GT, gamma-tocopherol] here?
Answer: 2.5

Question: And the Juiciness (swine; [5])?
Answer: 5.4

Question: And the Off-flavor (swine; [5])?
Answer: 3.9

Question: What about the “Pork Flavor” value (swine; [5]) of the same compound?
Answer: 1.8

Question: And the Tenderness (swine; [5])?
Answer: 7.3

Question: What about the TBARS content (cattle [1]; Post-display (5 days retail display)) of the same compound?
Answer: 0.663^ab Mg Malonaldehyde/1000 g ground beef

Question: What about the TBARS content (cattle [1]; Pre-display) of the same compound?
Answer: 0.173 Mg Malonaldehyde/1000 g ground beef

Question: What about the subjective color score (cattle [2]; Pre-storage, eight point scale (1.0 = Bleached red, 8.0 = Very dark red)) of the same compound?
Answer: 4.34

Question: And the subjective color score (cattle [2]; post-13 day storage, display Day 0, five-point scale (1.0 = Very bright cherry red, 5.0 = Very dark red/purple to brown))?
Answer: 2.19

Question: And the subjective color score (cattle [2]; post-13 day storage, display Day 1, five-point scale)?
Answer: 2.28

Question: What about the subjective color score (cattle [2]; post-13 day storage, display Day 2, five-point scale) of the same compound?
Answer: 2.29

Question: What about the subjective color score (cattle [2]; post-13 day storage, display Day 3, five-point scale) of the same compound?
Answer: 2.61

Question: And the subjective color score (cattle [2]; post-13 day storage, display Day 4, five-point scale)?
Answer: 2.80^b

Question: What about the subjective color score (cattle [2]; post-13 day storage, display Day 5, five-point scale) of the same compound?
Answer: 3.02^b

Question: What about the subjective color score (cattle [2]; post-13 day storage, display Day 7, five-point scale) of the same compound?
Answer: 3.29^b

Question: And the TBARS content (cattle [3]; Post-display)?
Answer: 0.411^b Mg Malonaldehyde/1000 g steak

Question: What about the TBARS content (cattle [3]; Pre-display) of the same compound?
Answer: 0.076 Mg Malonaldehyde/1000 g steak

Question: What about the Flavor intensity (cattle [4]) of the same compound?
Answer: 5.9

Question: What about the Juiciness (cattle [4]) of the same compound?
Answer: 5.7

Question: And the Off-flavor intensity (cattle [4])?
Answer: 7.7

Question: What about the Overall tenderness (cattle [4]) of the same compound?
Answer: 6.1^a

Question: What about the Warmed over flavor (cattle [4]) of the same compound?
Answer: 8.0

Question: With `Cc1c(C)c2c(c(C)c1O)CC[C@@](C)(CCC[C@H](C)CCC[C@H](C)CCCC(C)C)O2` [AT, alpha-tocopherol] as the compound, how does the Chewiness (swine; [6]) read?
Answer: 2.3

Question: And the Juiciness (swine; [6])?
Answer: 6.0

Question: What about the Off-flavor (swine; [6]) of the same compound?
Answer: 4.3

Question: What about the “Pork Flavor” value (swine; [6]) of the same compound?
Answer: 1.8

Question: What about the Tenderness (swine; [6]) of the same compound?
Answer: 7.8
